# According to patent US11879140B2, “P21 mRNA targeting DNAzymes” (1E Therapeutics Ltd., priority 2020, dated 2024):
# “Also recorded” adds a separate entry of the source.
# How the values were obtained:
# [1] = system: senescent human IMR-90 fibroblast cells; type: cell-based; conditions: increasing concentrations (FIGS. 6A-C, 12A-C)
# Summary of the method: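 Senescence was induced by etoposide at […] for 48 h, with the phenotype present 7 days later, or by H-RasG12 or long-term passaging. Cells grown at 5% oxygen were transfected with DNAzymes by Lipofectamine 2000, and survival was scored 3-6 days later by PrestoBlue relative to Lipofectamine-only control.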
# human p21 mRNA = assay: In vitro cleavage assay of human p21 mRNA; type: biochemical; conditions: in vitro cleavage of p21 mRNA (SEQ ID NO: 1); RNA substrate 500 nM, 37° C. 60 min, agarose gel
# Summary of the method: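 RNA substrates were T7 in vitro transcripts from PCR-amplified cDNA (source RNA: senescent IMR-90 cells), gel-purified. Substrate at 500 nM final was incubated with DNAzyme (10 μM stock) in reaction buffer (10× stock: 50 mM Tris-HCl pH 7.4, 100 mM NaCl, 10 mM MgCl2) for 60 min at 37 °C. Cleavage products were resolved on 1.5% agarose TBE gels and quantified by densitometry.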
substance,measurement,setting,value
"DNAzyme 1670: SEQ ID NO: 54: GGGAAAGGAggctagctacaacgaAAGGGGGAG (DNA GGGAAAGGAGGCTAGCTACAACGAAAGGGGGAG; DNA, backbone and methylation of C not given here)","selectivity of killing, senescent versus growing IMR-90 cells",[1],wide range of selective doses
same,Validated cleavage,human p21 mRNA,time and concentration dependent; also recorded: validated for mediating cleavage of p21 mRNA
